Results on 31 compounds are retold here after ChEMBL document CHEMBL1124264, “Predictive structure-activity relationships in a series of pyranoquinoline derivatives. A new primate model for the identification of antiallergic activity” (J Med Chem, 1988).

In one data set the test system is Monkey. Put plainly: In vitro inhibition of anti-IgE induced histamine release from bronchoalveolar mast cells of monkey infected with Ascaris suum. Type of data set: functional, Cercopithecidae, Lung.
Data set [1] is described as follows: Biological activity expressed as the Log potency ratio (PR) of the compound relative to a standard compound 63. Type of data set: ADME. Conditions: octanol/water.
Data set [2] is described as follows: log PR value (eq 2). To be noted: octanol/water. The data set is classed as ADME.
Data set [3] in a line: Dissociation constant (eq 2). The data set is classed as physicochemical. Conditions: read-out: pK3.
The nature of data set [4]: Dissociation constant using spectrophotometric method. Type of data set: physicochemical.
Data set [5] is described as follows: log PR value using spectrophotometric method. The data set is classed as ADME. Conditions: octanol/water.
Data set [6] in a line: Dissociation constant (pKa2) using partition method. The data set is classed as physicochemical. To be noted: read-out: pKa2.
Data set [7] is described as follows: Dissociation constant (pKa1) using partition method. The data set is classed as physicochemical. Conditions: read-out: pKa1.

For the compound `CCCc1c2nc(C(=O)[O-])cc(C3OCCCO3)c2cc2c(=O)cc(C(=O)[O-])oc12.[Na+].[Na+]`, in the data set with Monkey, the Potency ratio is 0.179. Further, the “Log PR” value in data set [1] is -0.75.
Turning to `CCCc1c2nc(C(=O)[O-])cc(C(F)(F)C(F)(F)F)c2cc2c(=O)cc(C(=O)[O-])oc12.[Na+].[Na+]`, the Potency ratio with Monkey is on record as 2.83. In addition, in data set [1], the “Log PR” value was 0.45.
Taken in the same sequence, the figures for `CCCc1c2nc(C(=O)[O-])cc(O)c2cc2c(=O)cc(C(=O)[O-])oc12.[Na+].[Na+]` were 2.366 and 0.37.
On to `CCCc1c2nc(C(=O)[O-])cc(S(=O)Oc3ccccc3)c2cc2c(=O)cc(C(=O)[O-])oc12.[Na+].[Na+]` (stereo not drawn), for which the Potency ratio with Monkey is recorded as 0.536. For the same compound, the “Log PR” value in data set [1] is reported as -0.27.
Take `CCCc1c2nc(C(=O)[O-])cc(C(F)F)c2cc2c(=O)cc(C(=O)[O-])oc12.[Na+].[Na+]`: in the data set with Monkey, the Potency ratio is listed as 0.586. Moreover, the “Log PR” value in data set [1] is recorded as -0.23.
Taken in the same sequence, the figures for `CCCc1c2nc(C(=O)[O-])cc(C=O)c2cc2c(=O)cc(C(=O)[O-])oc12.[Na+].[Na+]` were 0.237 and -0.63.
On to `CCCc1c2nc(C(=O)[O-])cc(NC(=O)Nc3ccccc3)c2cc2c(=O)cc(C(=O)[O-])oc12.[Na+].[Na+]`, for which the Potency ratio in the data set on Monkey was determined as 0.895. Also, the “Log PR” value in data set [1] was -0.05.
Taken in the same sequence, the figures for `CCCc1c2nc(C(=O)[O-])cc(NC(C)=O)c2cc2c(=O)cc(C(=O)[O-])oc12.[Na+].[Na+]` were 0.065 and -1.19.
Taken in the same sequence, the figures for `CCCc1c2nc(C(=O)[O-])ccc2cc2c(=O)cc(C(=O)[O-])oc12.[Na+].[Na+]` were 0.1 and -1.
On to `CCCc1c2nc(C(=O)[O-])cc(C(F)(F)C(F)(F)C(F)(F)F)c2cc2c(=O)cc(C(=O)[O-])oc12.[Na+].[Na+]`, for which the Potency ratio with Monkey is 3.725. In data set [1], the “Log PR” value turned out to be 0.57.
As for `CCCc1c2nc(C(=O)[O-])cc(Sc3ccccc3)c2cc2c(=O)cc(C(=O)[O-])oc12.[Na+].[Na+]`, in the data set on Monkey, the Potency ratio is recorded as 7.54. The “Log PR” value in data set [1] was found to be 0.88.
`CCCc1c2nc(C(=O)[O-])cc(/C=C/c3ccccc3)c2cc2c(=O)cc(C(=O)[O-])oc12.[Na+].[Na+]`: the Potency ratio in the data set with Monkey stood at 6.326. For the same compound, in data set [1], the “Log PR” value worked out at 0.8.
In the case of `CCCc1c2nc(C(=O)[O-])cc(N3CCCC3)c2cc2c(=O)cc(C(=O)[O-])oc12.[Na+].[Na+]`, the “Log PR” value in data set [2] is -1.25; in data set [1], 0.14. Besides, the pKa in data set [3] was found to be 8.75. The Potency ratio with Monkey is reported as 0.017.
In the case of `CCCc1c2nc(C(=O)[O-])cc(-n3cccc3)c2cc2c(=O)cc(C(=O)[O-])oc12.[Na+].[Na+]`, the Potency ratio in the data set on Monkey is recorded as 2.686. Also, the “Log PR” value in data set [1] was 0.43.
Consider `CCCc1c2nc(C(=O)[O-])cc(Oc3ccccc3)c2cc2c(=O)cc(C(=O)[O-])oc12.[Na+].[Na+]`, for which, in the data set on Monkey, the Potency ratio was found to be 3.244. Besides, the “Log PR” value in data set [1] came to 0.51.
In turn, `CCCc1c2nc(C(=O)[O-])cc(Nc3ccccc3)c2cc2c(=O)cc(C(=O)[O-])oc12.[Na+].[Na+]` came in with a pKa in data set [4] of 7.78. For the same compound, the “Log PR” value was 0.39 in data set [5] and -0.15 in data set [1]. The Potency ratio in the data set on Monkey stood at 0.706.
Take `CCCc1c2nc(C(=O)[O-])cc(/C=N/NC(=O)c3ccccc3)c2cc2c(=O)cc(C(=O)[O-])oc12.[Na+].[Na+]`: the Potency ratio in the data set on Monkey came out at 0.748. The “Log PR” value in data set [1] is recorded as -0.13.
For `CCCc1c2nc(C(=O)[O-])cc(C(F)(F)F)c2cc2c(=O)cc(C(=O)[O-])oc12.[Na+].[Na+]` the same measures were 2.53 and 0.4.
Taken in the same sequence, the figures for `CCCc1c2nc(C(=O)[O-])cc(Br)c2cc2c(=O)cc(C(=O)[O-])oc12.[Na+].[Na+]` were 1.04 and 0.02.
Taken in the same sequence, the figures for `CCCc1c2nc(C(=O)[O-])cc(Cl)c2cc2c(=O)cc(C(=O)[O-])oc12.[Na+].[Na+]` were 1.096 and 0.04.
On to `CCCc1c2nc(C(=O)[O-])cc(C(=O)[O-])c2cc2c(=O)cc(C(=O)[O-])oc12.[Na+].[Na+].[Na+]`, for which the Potency ratio in the data set on Monkey came out at 0.053. Moreover, the “Log PR” value in data set [1] is recorded as -1.27.
As for `CCCc1c2nc(C(=O)[O-])cc(NCC)c2cc2c(=O)cc(C(=O)[O-])oc12.[Na+].[Na+]`, the pKa in data set [4] came to 8.64. Also, the “Log PR” value in data set [5] was -0.89; in data set [1], -2.15. For the same compound, in the data set on Monkey, the Potency ratio is reported as 0.007.
With `CCCc1c2nc(C(=O)[O-])cc(OCC)c2cc2c(=O)cc(C(=O)[O-])oc12.[Na+].[Na+]`, the Potency ratio in the data set with Monkey stood at 0.4. Also, in data set [1], the “Log PR” value was -0.4.
With `CCCCCNc1cc(C(=O)[O-])nc2c(CCC)c3oc(C(=O)[O-])cc(=O)c3cc12.[Na+].[Na+]`, the pKa in data set [4] amounted to 8.7. Moreover, the “Log PR” value in data set [5] is listed as 0.05; in data set [1], -1.27. In addition, in the data set with Monkey, the Potency ratio is 0.053.
For the compound `CCCc1c2nc(C(=O)[O-])cc(SCC)c2cc2c(=O)cc(C(=O)[O-])oc12.[Na+].[Na+]`, in the data set with Monkey, the Potency ratio was found to be 2.249. In data set [1], the “Log PR” value was found to be 0.35.
For `CCCc1c2nc(C(=O)[O-])cc(C)c2cc2c(=O)cc(C(=O)[O-])oc12.[Na+].[Na+]` the same measures were 0.379 and -0.42.
Take `CCCc1c2nc(C(=O)[O-])cc(N)c2cc2c(=O)cc(C(=O)[O-])oc12.[Na+].[Na+]`: the results for the “Log PR” value in data set [2] and in data set [1] were -1.25 and 0.12, respectively. For the same compound, the pKa in data set [3] is 8.75. Besides, the Potency ratio in the data set with Monkey stood at 0.057.
Taken in the same sequence, the figures for `CCCc1c2nc(C(=O)[O-])cc(N(C)C)c2cc2c(=O)cc(C(=O)[O-])oc12.[Na+].[Na+]` were -1.2, -0.29, 8.26 and 0.063.
Regarding `CCCc1c2nc(C(=O)[O-])cc(C#N)c2cc2c(=O)cc(C(=O)[O-])oc12.[Na+].[Na+]`, the Potency ratio with Monkey is on record as 1.161. Moreover, in data set [1], the “Log PR” value came to 0.07.
In the case of `CCCc1c2nc(C(=O)[O-])cc(NC)c2cc2c(=O)cc(C(=O)[O-])oc12.[Na+].[Na+]`, the pKa in data set [6] turned out to be 1.62; in data set [7], 0.5; in data set [3] it was 8.63. Further, the “Log PR” value in data set [2] is recorded as -1.91; in data set [1], -0.66. For the same compound, the Potency ratio with Monkey was 0.012.
For the compound `CCCc1c2nc(C(=O)[O-])cc(N(C)C(C)=O)c2cc2c(=O)cc(C(=O)[O-])oc12.[Na+].[Na+]`, the Potency ratio in the data set on Monkey came to 0.009. In addition, the “Log PR” value in data set [1] was -2.05.
